Results as given in BindingDB's records for patent US11897898 (Biogen Ma, 2024).

Target: T1, Mitogen-activated protein kinase kinase kinase 5 (Homo sapiens, UniProt Q99683)
T1 sequence (Q99683 whole entry): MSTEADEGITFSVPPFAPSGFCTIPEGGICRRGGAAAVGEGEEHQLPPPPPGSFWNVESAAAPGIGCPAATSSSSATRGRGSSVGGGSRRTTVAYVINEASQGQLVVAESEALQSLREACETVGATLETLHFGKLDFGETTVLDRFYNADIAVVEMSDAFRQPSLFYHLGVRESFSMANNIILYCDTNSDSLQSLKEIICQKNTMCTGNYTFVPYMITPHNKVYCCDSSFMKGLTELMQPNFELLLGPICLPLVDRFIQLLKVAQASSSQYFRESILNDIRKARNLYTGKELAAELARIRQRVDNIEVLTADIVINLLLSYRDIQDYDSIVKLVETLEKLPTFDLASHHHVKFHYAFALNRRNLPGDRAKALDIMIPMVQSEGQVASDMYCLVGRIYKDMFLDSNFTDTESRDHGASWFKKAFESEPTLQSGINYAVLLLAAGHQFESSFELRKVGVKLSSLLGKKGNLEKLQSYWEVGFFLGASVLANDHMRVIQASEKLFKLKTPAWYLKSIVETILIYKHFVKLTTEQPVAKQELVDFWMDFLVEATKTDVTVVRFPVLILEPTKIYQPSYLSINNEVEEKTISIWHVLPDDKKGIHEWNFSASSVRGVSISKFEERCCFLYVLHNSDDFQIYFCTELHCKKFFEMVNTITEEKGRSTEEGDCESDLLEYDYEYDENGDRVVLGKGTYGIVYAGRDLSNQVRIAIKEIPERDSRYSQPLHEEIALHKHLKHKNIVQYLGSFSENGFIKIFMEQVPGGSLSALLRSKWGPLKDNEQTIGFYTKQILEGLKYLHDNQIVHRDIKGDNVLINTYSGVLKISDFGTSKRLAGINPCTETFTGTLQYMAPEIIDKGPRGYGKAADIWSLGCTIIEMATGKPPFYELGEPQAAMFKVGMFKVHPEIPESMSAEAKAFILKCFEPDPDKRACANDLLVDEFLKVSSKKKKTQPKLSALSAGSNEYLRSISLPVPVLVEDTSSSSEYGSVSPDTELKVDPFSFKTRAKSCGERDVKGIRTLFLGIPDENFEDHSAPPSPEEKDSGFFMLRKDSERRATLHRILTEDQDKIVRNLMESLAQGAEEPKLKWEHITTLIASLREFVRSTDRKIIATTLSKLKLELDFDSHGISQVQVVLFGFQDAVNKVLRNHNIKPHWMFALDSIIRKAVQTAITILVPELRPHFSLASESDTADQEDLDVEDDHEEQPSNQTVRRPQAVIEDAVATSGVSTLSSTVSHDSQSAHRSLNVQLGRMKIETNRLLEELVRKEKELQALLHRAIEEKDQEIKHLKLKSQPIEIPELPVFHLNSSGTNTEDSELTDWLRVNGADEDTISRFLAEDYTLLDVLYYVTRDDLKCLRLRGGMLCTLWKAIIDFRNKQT
Assay: ASK1 Enzyme Assay
Procedure: The protein kinase inhibitory activity of the compounds described herein were tested using the ASK1/MAP3K5 assay by Reaction Biology Corp. (Malvern, Pa.). The assay procedure follows (and is also available on the Reaction Biology Corp. website).Base Reaction Buffer: 20 mM Hepes (pH 7.5), 10 mM MgCl2, 1 mM EGTA,0.02% Brij35, 0.02 mg/mL BSA, 0.1 mM Na3VO4, 2 mM DTT, 1% DMSO;Substrate: 20 μM of myelin basic protein (MBP) and 10 μM ATP;Protein kinase: ASK1/MAP3K5.Reaction Procedure:1. Prepare indicated substrate in freshly prepared Base Reaction Buffer.2. Deliver any required cofactors to the substrate solution.3. Deliver indicated kinase into the substrate solution and gently mix.4. Deliver compounds in DMSO into the kinase reaction mixture by Acoustic; technology (Echo550; nanoliter range), incubate for 20 minutes at room temperature.5. Deliver 33P-ATP (specific activity 10 μCi/μL) into the reaction mixture to initiate the reaction.6. Incubate kinase reaction for 2 hours at room temperature.7. Reactions are spotted onto P81 ion exchange paper.8. Detect kinase activity by filter-binding method.

| IC50 | SMILES |
| --- | --- |
| in the range around 550 nM | C[C@@H]1CCCOc2ncc(-c3ccncc3)cc2C(=O)Nc2cccc(n2)-c2nncn21 [US11897898, Example 18] |
| in the range around 550 nM | C[C@@H]1CCCOc2ncc(N3CCOCC3)cc2C(=O)Nc2cccc(n2)-c2nncn21 [US11897898, Example 6] |
